From patent US9867372B2, “Tetrazolinone compound and use of same” (SUMITOMO CHEMICAL COMPANY, LIMITED, priority 2013, dated 2018)

Tested on: cucumber powdery mildew fungus (Sphaerotheca fuliginea, a QoI-resistant strain, cytochrome b position 143 mutated from glycine to alanine)
Assay type: in vivo
Conditions: 200 ppm, QoI-resistant strain (Test Example 2, Comparative Example 2)

Cn1nnn(-c2ccccc2COc2cccc(-c3ccccc3)c2)c1=O [1-[2-(biphenyl-3-yloxymethyl)-phenyl]-4-methyl-1,4-dihydrotetrazol-5-one]
area of lesion spots on the treated plant relative to that on an untreated plant: ≥ 70%
